Laboratory results: ChEMBL document CHEMBL1151812, “Homotyrosine-containing cyanopeptolins 880 and 960 and anabaenopeptins 908 and 915 from Planktothrix agardhii CYA 126/8” (J Nat Prod, 2009)
Activity calls are given as the source filed them. No cut-off for these calls is given here. Numbered stars: 1 amine (or outer) side, 2 acyl side, 3 side chain; on linkers, the order of the positions; unused ones are H or OH. Bridge positions count the residues as written; N and C are the ends. Square brackets hold non-standard residues; d marks the D form. Peptide text beside a SMILES is read from it. NMehTyr = CN[C@@H](CCc1ccc(O)cc1)C(=O)O; hTyr = N[C@@H](CCc1ccc(O)cc1)C(=O)O; CO = O=C([*:1])[*:2]

Legend:
[1] = molecular target: T1, Carboxypeptidase A1 (Homo sapiens) (UniProt P15085); assay: Inhibition of carboxypeptidase A up to 20 ug/ml
T1 sequence (whole entry): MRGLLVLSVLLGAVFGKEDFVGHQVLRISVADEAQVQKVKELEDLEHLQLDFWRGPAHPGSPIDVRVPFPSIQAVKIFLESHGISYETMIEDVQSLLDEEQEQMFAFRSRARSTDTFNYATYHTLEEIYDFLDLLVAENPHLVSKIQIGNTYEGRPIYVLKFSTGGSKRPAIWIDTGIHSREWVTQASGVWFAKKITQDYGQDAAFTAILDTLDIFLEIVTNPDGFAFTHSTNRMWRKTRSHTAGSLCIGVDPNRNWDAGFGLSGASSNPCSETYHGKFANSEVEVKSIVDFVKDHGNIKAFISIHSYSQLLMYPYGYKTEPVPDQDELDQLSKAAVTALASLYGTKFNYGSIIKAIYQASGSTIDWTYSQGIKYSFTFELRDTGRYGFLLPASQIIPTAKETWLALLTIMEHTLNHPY

[2] = Inhibition of chymotrypsin up to 100 ug/ml
[3] = Inhibition of trypsin up to 100 ug/ml
[4] = molecular target: T2, Carboxypeptidase A1 (Homo sapiens, UniProt P15085); assay: Inhibition of carboxypeptidase A
T2 sequence (P15085 whole entry): T1 sequence (whole entry)

Activity [1]	Activity [2]	Activity [3]	IC50 [4] [µM]	SMILES
inactive	inactive	inactive		CC[C@H](C)[C@@H]1NC(=O)[C@H](CCc2ccc(O)cc2)N(C)C(=O)[C@H](CCc2ccc(O)cc2)NC(=O)[C@H](C(C)C)NC(=O)[C@H](NC(=O)N[C@@H](CCCNC(=N)N)C(=O)O)CCCCNC1=O ({Arg-CO}-[dK]V[hTyr][NMehTyr]I; lactam 1-C)
	inactive	inactive	0.131	CC[C@H](C)[C@@H]1NC(=O)[C@H](CCc2ccc(O)cc2)N(C)C(=O)[C@H](CCc2ccc(O)cc2)NC(=O)[C@H](C(C)C)NC(=O)[C@H](NC(=O)N[C@@H](Cc2ccc(O)cc2)C(=O)O)CCCCNC1=O [ANABAENOPEPTIN 915] ({Tyr-CO}-[dK]V[hTyr][NMehTyr]I; lactam 1-C)
